From ChEMBL document CHEMBL1201862, “PubChem BioAssay data set” (2004)
Active and inactive are the calls of the source.

Assays:
[1] = molecular target: T1, Corticotropin-releasing factor receptor 2/Corticotropin-releasing factor-binding protein (Homo sapiens, UniProt P24387+Q13324); test: activators of CRF receptor 2 with binding protein – uHTS hits, confirmation (AID 602473); format: functional; details: read-out: EC50_Mean
T1 sequence (Q13324 whole entry): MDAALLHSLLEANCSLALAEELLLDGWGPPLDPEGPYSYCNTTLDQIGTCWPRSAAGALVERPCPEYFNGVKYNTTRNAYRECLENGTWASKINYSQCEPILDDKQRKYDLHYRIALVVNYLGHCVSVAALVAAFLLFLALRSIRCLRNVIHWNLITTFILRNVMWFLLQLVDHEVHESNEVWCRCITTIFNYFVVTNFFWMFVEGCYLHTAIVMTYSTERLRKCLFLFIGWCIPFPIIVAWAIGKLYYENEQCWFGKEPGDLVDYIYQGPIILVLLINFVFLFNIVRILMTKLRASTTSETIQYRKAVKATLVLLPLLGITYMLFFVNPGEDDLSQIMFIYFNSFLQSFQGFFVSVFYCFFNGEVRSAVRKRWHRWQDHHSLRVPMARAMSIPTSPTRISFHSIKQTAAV
T1 sequence (P24387 whole entry): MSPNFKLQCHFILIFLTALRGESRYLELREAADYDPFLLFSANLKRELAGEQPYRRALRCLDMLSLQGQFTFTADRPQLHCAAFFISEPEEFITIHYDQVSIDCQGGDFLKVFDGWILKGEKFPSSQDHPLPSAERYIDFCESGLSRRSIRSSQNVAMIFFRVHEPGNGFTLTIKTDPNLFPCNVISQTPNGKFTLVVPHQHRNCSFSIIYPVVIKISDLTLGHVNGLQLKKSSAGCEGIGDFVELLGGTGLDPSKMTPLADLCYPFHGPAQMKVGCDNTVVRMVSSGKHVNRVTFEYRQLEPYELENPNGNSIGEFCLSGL

[2] = molecular target: T2, Carboxy-terminal domain RNA polymerase II polypeptide A small phosphatase 1 (Homo sapiens, UniProt Q9GZU7); test: CTDSP1 inhibitors, concentration-response, biochemical, absorbance readout, ultra-high-throughput screen actives (AID 540297); format: functional
T2 sequence (Q9GZU7 whole entry): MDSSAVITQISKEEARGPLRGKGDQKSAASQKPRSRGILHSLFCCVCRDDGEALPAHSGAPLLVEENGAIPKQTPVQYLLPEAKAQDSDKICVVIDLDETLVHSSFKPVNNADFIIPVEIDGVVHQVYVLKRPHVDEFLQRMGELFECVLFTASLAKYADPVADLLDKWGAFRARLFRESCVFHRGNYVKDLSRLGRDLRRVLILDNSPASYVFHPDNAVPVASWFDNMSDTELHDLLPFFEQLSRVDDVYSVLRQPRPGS

Vero = test: cells; format: functional; details: Chlorocebus sabaeus
Protein RecA = molecular target: T3, Protein RecA (Mycobacterium tuberculosis, UniProt P9WHJ3); test: Fluorescence Cell-Free Homogeneous Dose Retest to Identify Inhibitors of RecA-Intein Splicing Activity. [Related pubchem assays (depositor defined):AID2097, AID2223, AID489010, AID492950]; format: functional
T3 sequence (P9WHJ3 whole entry): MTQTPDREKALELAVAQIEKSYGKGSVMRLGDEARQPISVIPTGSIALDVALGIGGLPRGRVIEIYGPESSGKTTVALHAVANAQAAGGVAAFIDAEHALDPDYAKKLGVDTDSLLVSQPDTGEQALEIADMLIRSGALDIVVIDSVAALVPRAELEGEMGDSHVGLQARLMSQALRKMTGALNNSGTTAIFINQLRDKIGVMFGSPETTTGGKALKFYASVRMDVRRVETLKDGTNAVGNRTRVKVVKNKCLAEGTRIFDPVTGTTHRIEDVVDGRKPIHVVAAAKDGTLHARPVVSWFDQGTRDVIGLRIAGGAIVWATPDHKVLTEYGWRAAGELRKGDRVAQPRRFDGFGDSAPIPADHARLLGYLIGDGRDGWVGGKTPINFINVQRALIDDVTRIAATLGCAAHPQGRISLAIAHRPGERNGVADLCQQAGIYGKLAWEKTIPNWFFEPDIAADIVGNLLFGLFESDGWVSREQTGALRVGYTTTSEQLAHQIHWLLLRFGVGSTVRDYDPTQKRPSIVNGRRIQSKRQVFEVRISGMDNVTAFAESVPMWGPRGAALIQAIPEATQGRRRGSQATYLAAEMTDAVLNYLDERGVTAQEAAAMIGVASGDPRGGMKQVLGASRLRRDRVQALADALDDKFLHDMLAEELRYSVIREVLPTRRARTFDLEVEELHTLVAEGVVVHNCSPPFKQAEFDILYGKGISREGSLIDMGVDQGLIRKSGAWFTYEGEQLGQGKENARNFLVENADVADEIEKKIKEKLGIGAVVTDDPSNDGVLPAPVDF

[3] = molecular target: T4, Replicative DNA helicase DnaB (Mycobacterium tuberculosis, UniProt P9WMR3); test: DnaB intein splicing inhibitors, dose response, biochemical, cell-free fluorescence (AID 449749); format: functional
T4 sequence (P9WMR3 whole entry): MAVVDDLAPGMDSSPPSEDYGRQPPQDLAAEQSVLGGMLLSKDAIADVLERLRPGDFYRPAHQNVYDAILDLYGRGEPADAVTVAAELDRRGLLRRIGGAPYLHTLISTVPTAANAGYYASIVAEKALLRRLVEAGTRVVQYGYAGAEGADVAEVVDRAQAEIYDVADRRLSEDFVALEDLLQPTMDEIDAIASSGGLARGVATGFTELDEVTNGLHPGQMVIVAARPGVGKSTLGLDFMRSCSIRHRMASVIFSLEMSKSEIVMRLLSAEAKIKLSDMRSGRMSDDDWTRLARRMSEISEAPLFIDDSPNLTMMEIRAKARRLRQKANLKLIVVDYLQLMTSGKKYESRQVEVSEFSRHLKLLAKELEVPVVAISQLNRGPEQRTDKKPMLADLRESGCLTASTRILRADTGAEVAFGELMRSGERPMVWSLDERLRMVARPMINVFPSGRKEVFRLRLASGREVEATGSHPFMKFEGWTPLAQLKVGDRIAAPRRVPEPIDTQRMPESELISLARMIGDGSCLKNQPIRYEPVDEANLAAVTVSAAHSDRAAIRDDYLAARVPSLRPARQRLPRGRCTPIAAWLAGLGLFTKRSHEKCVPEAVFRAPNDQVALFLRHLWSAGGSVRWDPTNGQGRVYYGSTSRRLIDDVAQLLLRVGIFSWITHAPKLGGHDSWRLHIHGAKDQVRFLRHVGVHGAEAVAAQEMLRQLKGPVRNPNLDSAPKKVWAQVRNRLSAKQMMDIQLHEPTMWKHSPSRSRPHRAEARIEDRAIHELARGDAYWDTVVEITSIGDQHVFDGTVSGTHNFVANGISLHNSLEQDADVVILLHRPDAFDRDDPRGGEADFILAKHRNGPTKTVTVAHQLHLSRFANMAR

[4] = molecular target: Luciferin 4-monooxygenase (Photinus pyralis, UniProt P08659); test: inhibition of purified Photinus pyralis luciferase – biochemical, luminescence, dose response (AID 1891)
Large T antigen = Large T antigen (Simian virus 40, UniProt P03070); format: functional, Betapolyomavirus macacae;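 note: Confirmatory-stage PubChem screen for compounds that inhibit SV40 T antigen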
[5] = Luminescence Cell-Based Dose Confirmation HTS to Identify Inhibitors of Platelet Dense Granule Release. [Related pubchem assays: 1663 (Primary HTS), 1678 (Summary of Project)]; format: functional
[6] = molecular target: T5, Zinc finger protein mex-5 (Caenorhabditis elegans, UniProt Q9XUB2); test: potency of MEX-5 RNA-binding blockers – biochemical, C. elegans, fluorescence polarization, dose response (AID 1960)
T5 sequence (Q9XUB2 whole entry): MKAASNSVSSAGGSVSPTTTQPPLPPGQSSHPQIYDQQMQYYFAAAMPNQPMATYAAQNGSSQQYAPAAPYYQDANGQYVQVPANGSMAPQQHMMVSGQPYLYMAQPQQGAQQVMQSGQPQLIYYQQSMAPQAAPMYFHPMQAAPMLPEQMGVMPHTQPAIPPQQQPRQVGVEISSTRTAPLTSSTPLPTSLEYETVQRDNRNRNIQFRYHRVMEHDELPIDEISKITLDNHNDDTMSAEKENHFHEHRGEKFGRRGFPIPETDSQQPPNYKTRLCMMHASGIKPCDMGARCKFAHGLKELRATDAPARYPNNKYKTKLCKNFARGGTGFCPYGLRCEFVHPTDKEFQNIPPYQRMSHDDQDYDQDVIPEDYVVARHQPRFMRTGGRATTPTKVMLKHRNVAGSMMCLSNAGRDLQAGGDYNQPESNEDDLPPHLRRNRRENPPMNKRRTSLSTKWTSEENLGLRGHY

[7] = molecular target: T6, RNA-binding protein pos-1 (Caenorhabditis elegans, UniProt G5EF15); test: disruptors of C. elegans POS-1 RNA interaction – biochemical, fluorescence polarization, dose response (AID 1964);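 note: purified POS-1 fused to maltose binding protein made in E. coli; potency of compounds blocking POS-1 binding to fluorescent RNA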
T6 sequence (G5EF15 whole entry): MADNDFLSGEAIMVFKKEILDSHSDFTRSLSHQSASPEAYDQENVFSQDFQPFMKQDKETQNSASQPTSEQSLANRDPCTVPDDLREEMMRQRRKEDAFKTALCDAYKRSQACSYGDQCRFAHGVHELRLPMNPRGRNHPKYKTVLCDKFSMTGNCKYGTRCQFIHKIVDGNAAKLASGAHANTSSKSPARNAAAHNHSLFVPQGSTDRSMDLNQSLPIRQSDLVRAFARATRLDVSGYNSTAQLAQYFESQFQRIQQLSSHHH

[8] = molecular target: Heat shock protein HSP 90-alpha (Homo sapiens, UniProt P07900); format: functional, organism-based
[9] = molecular target: FAD-linked sulfhydryl oxidase ALR (Homo sapiens, UniProt P55789); test: ALR-catalysed DTT oxidation blockers – biochemical, H2O2 detection, luminescence, cherry-pick, dose response (AID 493248)
Chain of FAD-linked sulfhydryl oxidase ALR (P55789 whole entry): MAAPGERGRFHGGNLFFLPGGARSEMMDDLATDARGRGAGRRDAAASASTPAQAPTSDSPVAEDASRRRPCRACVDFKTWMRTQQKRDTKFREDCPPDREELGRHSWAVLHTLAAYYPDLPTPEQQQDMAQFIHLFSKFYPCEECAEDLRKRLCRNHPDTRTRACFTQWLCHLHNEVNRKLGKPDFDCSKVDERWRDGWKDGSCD

Chain of Large T antigen (P03070 whole entry): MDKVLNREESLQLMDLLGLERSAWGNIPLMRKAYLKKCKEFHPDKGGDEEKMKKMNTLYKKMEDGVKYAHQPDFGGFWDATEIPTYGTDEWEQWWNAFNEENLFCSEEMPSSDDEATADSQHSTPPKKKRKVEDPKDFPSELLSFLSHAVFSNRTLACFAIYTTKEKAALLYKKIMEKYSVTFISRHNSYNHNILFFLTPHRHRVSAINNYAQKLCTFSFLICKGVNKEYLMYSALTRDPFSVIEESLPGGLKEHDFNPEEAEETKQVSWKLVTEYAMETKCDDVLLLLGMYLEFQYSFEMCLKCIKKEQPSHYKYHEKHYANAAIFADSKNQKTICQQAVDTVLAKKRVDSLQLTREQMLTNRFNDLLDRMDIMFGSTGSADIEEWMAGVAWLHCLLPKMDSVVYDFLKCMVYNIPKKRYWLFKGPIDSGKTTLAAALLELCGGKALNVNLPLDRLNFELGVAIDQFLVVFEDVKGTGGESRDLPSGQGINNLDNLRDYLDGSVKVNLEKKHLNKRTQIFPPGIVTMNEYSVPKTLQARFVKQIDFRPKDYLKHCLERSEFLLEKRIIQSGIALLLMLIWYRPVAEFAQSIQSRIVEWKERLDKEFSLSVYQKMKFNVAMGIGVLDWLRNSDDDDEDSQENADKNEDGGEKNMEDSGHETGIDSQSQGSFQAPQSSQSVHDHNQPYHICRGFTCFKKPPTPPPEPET
Chain of Luciferin 4-monooxygenase (P08659 whole entry): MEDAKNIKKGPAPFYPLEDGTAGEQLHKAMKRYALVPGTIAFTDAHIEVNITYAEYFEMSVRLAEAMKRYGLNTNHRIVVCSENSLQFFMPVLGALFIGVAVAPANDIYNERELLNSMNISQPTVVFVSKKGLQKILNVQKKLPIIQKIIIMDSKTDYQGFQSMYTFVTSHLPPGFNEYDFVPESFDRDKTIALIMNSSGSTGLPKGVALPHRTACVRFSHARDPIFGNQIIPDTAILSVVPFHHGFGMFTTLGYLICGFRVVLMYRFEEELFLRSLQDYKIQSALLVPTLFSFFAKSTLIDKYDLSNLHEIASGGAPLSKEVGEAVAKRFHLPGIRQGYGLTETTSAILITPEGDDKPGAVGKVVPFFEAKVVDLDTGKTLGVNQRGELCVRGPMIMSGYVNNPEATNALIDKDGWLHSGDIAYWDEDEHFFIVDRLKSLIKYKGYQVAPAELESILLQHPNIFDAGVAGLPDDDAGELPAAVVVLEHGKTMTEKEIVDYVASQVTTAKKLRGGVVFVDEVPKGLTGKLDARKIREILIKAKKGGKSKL

For `CCN(C(=O)CN1C(=O)COc2ccc(S(=O)(=O)N3CCCCCC3)cc21)c1cccc(C)c1`, the EC50 [1] was 6.41 µM (active).
For `CC(C)(O)CCCC(C)(O)c1ccc(C(=O)O)cc1O` (stereo unspecified), the IC50 [2] was 9.75 µM (active).
With `O=C(CCl)N1N=C(c2ccco2)CC1c1ccco1` (stereo unspecified) the CC50 (Vero) was 9.82 µM (active), the EC50 (Protein RecA) was 9.97 µM (active) and the AC50 [3] was > 380 µM (inactive).
In the case of `CN(C)c1ccc(N/C=C/C(=O)c2ccccc2)cc1`, the EC50 [4] is reported as 0.654 µM (active), the IC50 (Large T antigen) is reported as 5.19 µM (active) and the EC50 [5] is reported as 0.93 µM (active).
For `Cc1c(N/C=C2\C(=O)NC(=O)N(Cc3ccccc3)C2=O)c(=O)n(-c2ccccc2)n1C`, the EC50 [6] was > 300 µM (not active) and the EC50 [7] was > 300 µM (not active).
In the case of `Oc1ccccc1-c1nc(NC2CCCC2)c2ccccc2n1`, the AC50 [8] is reported as 4.23 µM (active).
For `NC(=O)c1c(NC(=O)c2c(F)cccc2F)sc2c1CCN(Cc1ccccc1)C2`, the EC50 [6] was > 300 µM (not active) and the EC50 [7] was 57.1 µM (active).
With `CCCc1ccc(C(=O)NNC(=O)c2ccc(Cl)cc2)cc1` the IC50 [2] was 9.67 µM (active).
In the case of `CC(=O)Nc1ccc(S(=O)(=O)N(C)CC(=O)OCC(=O)N2CCN(C(=O)c3ccco3)CC2)cc1`, the IC50 [2] is reported as 9.38 µM (active).
With `CC1CCN(C2CC(=O)N(c3ccc(Br)cc3Br)C2=O)CC1` (stereo unspecified) the AC50 [8] was < 0.195 µM (active).
For `COc1cc(-c2csc(C)n2)ccc1O`, the AC50 [9] was 13.9 µM (active) and the IC50 (Large T antigen) was 4.9 µM (active).
With `O=C(COc1ccc2oc(-c3ccccc3)cc(=O)c2c1)NCc1ccco1` the IC50 [2] was 9.63 µM (active).
For `COc1ccccc1NC(=O)c1nn(-c2ccc(Cl)cc2)ccc1=O`, the IC50 [2] was 9.88 µM (active).
With `O=C(CCN1C(=O)/C(=C/c2cccs2)SC1=S)NC1=NCCS1` the AC50 [8] was 5.03 µM (active).
